Measured values from patent publication US5760241A, “Thiol derivatives with metallopeptidase inhibitory activity” (priority 1996, dated 1998).

Molecular target: T1, ACE (purified by lung rabbit, EC 3.4.15.1) (Oryctolagus cuniculus, UniProt P12822)
T1 construct: purchased SIGMA; host or cells: rabbit lung
T1 sequence (P12822 34-1310): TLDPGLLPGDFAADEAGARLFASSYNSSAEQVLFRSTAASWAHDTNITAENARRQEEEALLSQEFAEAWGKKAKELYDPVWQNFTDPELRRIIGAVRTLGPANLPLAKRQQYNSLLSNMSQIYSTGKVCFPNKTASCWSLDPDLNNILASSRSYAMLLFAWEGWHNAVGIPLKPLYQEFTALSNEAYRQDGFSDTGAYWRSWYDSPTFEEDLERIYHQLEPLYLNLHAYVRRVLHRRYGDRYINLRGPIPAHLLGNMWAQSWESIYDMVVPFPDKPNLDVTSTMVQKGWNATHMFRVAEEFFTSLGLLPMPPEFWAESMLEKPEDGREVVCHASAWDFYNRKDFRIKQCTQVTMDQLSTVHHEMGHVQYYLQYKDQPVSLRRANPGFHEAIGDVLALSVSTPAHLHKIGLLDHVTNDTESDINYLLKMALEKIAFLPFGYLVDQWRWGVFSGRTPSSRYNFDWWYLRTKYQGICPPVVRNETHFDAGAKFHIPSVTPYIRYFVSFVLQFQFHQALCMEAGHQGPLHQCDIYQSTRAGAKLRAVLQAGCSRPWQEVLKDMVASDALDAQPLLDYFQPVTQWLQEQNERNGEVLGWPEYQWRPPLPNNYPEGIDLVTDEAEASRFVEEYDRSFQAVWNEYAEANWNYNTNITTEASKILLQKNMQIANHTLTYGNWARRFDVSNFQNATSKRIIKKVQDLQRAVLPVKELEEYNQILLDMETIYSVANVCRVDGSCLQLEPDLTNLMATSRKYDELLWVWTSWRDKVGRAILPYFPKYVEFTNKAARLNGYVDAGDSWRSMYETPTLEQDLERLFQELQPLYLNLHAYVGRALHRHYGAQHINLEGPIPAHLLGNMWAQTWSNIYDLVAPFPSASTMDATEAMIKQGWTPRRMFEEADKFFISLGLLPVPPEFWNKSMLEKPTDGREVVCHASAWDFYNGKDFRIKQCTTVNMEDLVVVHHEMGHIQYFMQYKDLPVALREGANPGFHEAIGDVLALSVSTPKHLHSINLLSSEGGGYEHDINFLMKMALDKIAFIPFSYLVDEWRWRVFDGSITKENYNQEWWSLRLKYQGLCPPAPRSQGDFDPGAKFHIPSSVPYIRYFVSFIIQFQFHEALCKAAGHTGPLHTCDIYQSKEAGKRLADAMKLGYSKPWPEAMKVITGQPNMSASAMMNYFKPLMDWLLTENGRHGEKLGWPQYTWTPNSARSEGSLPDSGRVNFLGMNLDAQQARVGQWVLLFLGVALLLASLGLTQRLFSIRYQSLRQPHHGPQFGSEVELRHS
Assay: In vitro ACE-inhibitory activity (FAPGG substrate, spectrophotometric)
Assay type: biochemical
Details: 37° C.; FAPGG 0.8 mM
Method: b) ACE-inhibitory activity
The ACE-inhibitory activity was evaluated according to the method reported in the literature by B. Holmquist et al., in Analytical Biochemistry 95, 540-548 (1979).
[…] of ACE (250 mU/ml purified by lung rabbit, EC 3.4.15.1 SIGMA) were preincubated with 50 μl of the compound of formula I or of the comparison compound in thermostated cuvettes at 37° C.
The reaction was started by adding furylacryloylphenylalanylglycylglycine 0.8 mM (FAPGG-SIGMA).
Contemporaneously, by using a Beckman DU-50 spectrophotometer provided with a program for calculating delta A/minutes and regression coefficients of the enzyme kinetics curves, the absorbance at 340 nm was recorded in continuo for 5 minutes.
The percentage of the enzyme inhibition in the preparations treated with the compounds of formula I or with the comparative compounds with respect to the untreated preparations was expressed as IC50 (nM) value.

Which IC50 does the source give for O=C(N[C@@H](Cc1ccc(-c2ccccc2)cc1)C(=O)O)C(CS)Cc1ccccc1 (stereo partly shown) [compound 41] here?
Its IC50 is 5 nM.
